Data as given in ChEMBL document CHEMBL1806487, “Design, synthesis and docking studies on benzamide derivatives as histone deacetylase inhibitors” (Bioorg Med Chem Lett, 2011).

Legend:
[1] = Inhibition of HDAC by fluorescence assay
DU-145 [2] = assay: Ratio of MS-275 GI to compound GI for human DU145 cells; assay type: functional
A2780 = assay: Anticancer activity against human A2780 cells after 72 hrs by MTT assay; assay type: functional
DU-145 [3] = assay: Anticancer activity against human DU145 cells after 72 hrs by MTT assay; assay type: functional
MDA-MB-231 = assay: Anticancer activity against human MDA-MB-231 cells after 72 hrs by MTT assay; assay type: functional
HCT-116 = assay: Anticancer activity against human HCT116 cells after 72 hrs by MTT assay; assay type: functional
[4] = Ratio of MS-275 IC50 to compound IC50 to for HDAC

Row | SMILES | IC50 [1] | GI (A2780) | GI (DU-145 [3]) | further results
1 | Nc1ccccc1NC(=O)c1ccc(C(=O)CNC(=O)c2ccccn2)cc1 | 30.2 µM | – | – | –
2 | Nc1ccccc1NC(=O)c1ccc(C(=O)CNS(=O)(=O)c2cccnc2Cl)cc1 | 11.1 µM | – | – | –
3 | Nc1cc(C(=O)NCC(=O)c2ccc(C(=O)Nc3ccccc3N)cc2)ccn1 | 42.6 µM | – | – | –
4 | Nc1ccccc1NC(=O)c1ccc(C(=O)CNC(=O)c2ccccc2)cc1 | > 100 µM | – | – | –
5 | Nc1ccc(S(=O)(=O)NCC(=O)c2ccc(C(=O)Nc3ccccc3N)cc2)cc1 | 3.8 µM | 5.7 µM | 0.16 µM | Ratio (DU-145 [2]): 50
6 | Nc1ccccc1NC(=O)c1ccc(CNC(=O)OCc2cccnc2)cc1 [ENTINOSTAT] | 13 µM | 5.7 µM | 7.9 µM | GI (MDA-MB-231): 2.8 µM; GI (HCT-116): 3.1 µM
7 | Nc1cccc(C(=O)NCC(=O)c2ccc(C(=O)Nc3ccccc3N)cc2)c1 | 70.7 µM | – | – | –
8 | Nc1ccc(C(=O)NCC(=O)c2ccc(C(=O)Nc3ccccc3N)cc2)cc1 | 50.2 µM | – | – | –
9 | Cc1ccc(S(=O)(=O)NCC(=O)c2ccc(C(=O)Nc3ccccc3N)cc2)cc1 | 22.4 µM | >100 µM | 37.7 µM | GI (MDA-MB-231): 18.4 µM; Ratio IC50 [4]: 4; GI (HCT-116): 18.7 µM
